Data taken from patent publication US20260035365A1, “1H-PYRROLO[3,2-B]PYRIDINE DERIVATIVES AS IRREVERSIBLE INHIBITORS OF MUTANT EGFR FOR THE TREATMENT OF CANCER” (Bayer Aktiengesellschaft, priority 2022, published 2026).

Assays:
[1] = biological target: mutEGFR (D770_N771insSVD) (Homo sapiens, UniProt P00533, INS767SVD); experiment: Exon20-mutant-EGFR (D770_N771insSVD) TR-FRET kinase assay; format: biochemical; settings: 2 mM ATP, 15 min preincubation
Method in brief: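 GST-fused human EGFR fragment R669-A1210 carrying the SVD insertion, Sf9-expressed, typically 15 pg/μl, was preincubated with compound for 15 min at 22° C in pH 7.0 Hepes/MgCl2 buffer. Phosphorylation was read by HTRF (665/620 nm ratio), normalised to no-inhibitor and no-enzyme controls.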

[2] = biological target: mutEGFR (D770_N771insNPG, T790); experiment: mutEGFR (D770_N771insNPG, T790) kinase assay; format: biochemical, human
Sequence of mutEGFR (D770_N771insNPG, T790) (P00533 with tags, fused parts or gaps INS770NPG limits assumed): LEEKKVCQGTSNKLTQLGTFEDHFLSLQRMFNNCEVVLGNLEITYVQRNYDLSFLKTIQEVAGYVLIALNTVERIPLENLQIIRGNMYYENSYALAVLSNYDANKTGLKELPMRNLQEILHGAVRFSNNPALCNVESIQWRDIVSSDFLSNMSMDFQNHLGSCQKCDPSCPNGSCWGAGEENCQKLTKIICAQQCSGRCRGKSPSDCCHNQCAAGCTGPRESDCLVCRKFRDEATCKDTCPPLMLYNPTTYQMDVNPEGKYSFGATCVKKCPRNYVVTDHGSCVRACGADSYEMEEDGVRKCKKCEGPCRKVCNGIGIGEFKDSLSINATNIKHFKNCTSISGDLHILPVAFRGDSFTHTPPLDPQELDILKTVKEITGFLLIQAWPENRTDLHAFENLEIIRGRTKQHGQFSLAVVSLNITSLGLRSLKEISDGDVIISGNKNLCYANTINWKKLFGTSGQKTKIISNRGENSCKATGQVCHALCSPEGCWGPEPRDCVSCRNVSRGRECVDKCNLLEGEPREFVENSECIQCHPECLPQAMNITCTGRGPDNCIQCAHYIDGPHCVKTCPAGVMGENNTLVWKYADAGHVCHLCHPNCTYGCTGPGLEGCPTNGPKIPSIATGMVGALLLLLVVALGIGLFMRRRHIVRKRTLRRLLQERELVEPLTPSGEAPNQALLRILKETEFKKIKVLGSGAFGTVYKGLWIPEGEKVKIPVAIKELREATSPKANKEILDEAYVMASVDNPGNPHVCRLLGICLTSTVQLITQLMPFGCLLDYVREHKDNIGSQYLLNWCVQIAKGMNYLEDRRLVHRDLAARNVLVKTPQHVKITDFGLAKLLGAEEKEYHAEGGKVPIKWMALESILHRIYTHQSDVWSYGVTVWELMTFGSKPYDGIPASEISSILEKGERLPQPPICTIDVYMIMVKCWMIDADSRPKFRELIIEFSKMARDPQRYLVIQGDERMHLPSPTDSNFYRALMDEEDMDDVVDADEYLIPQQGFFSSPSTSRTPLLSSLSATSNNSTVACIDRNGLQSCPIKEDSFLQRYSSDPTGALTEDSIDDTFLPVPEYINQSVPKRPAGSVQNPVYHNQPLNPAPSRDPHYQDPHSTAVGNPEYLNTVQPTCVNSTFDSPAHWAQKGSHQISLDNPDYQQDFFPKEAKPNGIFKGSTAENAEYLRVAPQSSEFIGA

[3] = test system: BA/F3 (insSVD) cells; experiment: Ba/F3 cell survival assay (Cell Titer-Glo), EGFR-insSVD; format: cell-based; settings: Mus musculus, BaF3, 48 h, without IL-3, with EGF
Method in brief: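 Viability read by CellTiter-Glo luminescence after 48 h compound exposure at 37° C, 4000 cells/well. Retrovirally transduced, puromycin-selected Ba/F3 lines carrying EGFR-insSVD ± T790M grew IL-3-free with 10 ng/mL EGF for 2 days beforehand; compound delivered by 100 nL pin.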

[4] = test system: BA/F3 (EGFR D770_N771 insSVD T790M) cells; experiment: Ba/F3 cell survival assay (Cell Titer-Glo), EGFR-insSVD T790M; format: cell-based; settings: Ba/F3 EGFR-D770-N771ins_SVD; 48 h, without IL-3, with EGF
Protocol: 293T cells from ATCC were transfected with pBABEpuro expression constructs for WT EGFR or EGFR-insSVD, or EGFR-insSVD T790M, and pCL-Eco packaging vector using Fugene-6 transfection reagent from Promega. Plates were incubated at 37° C. for 48 h. Retrovirus was harvested by filtering the media supernatant through a 0.45 μm filter.
Ba/F3 cells purchased from DSMZ were grown in RPMI+10% FBS+10 ng/mL IL-3 and infected with filtered retroviral supernatant at a 1:2 dilution. Polybrene was added to a concentration of 8 μg/mL, plates were spun for 90 min, and incubated for 16 h at 37° C. 2 μg/mL puromycin was added to the infected cells 24 h after infection and cells were continually grown in the presence of puromycin and 10 ng/mL IL-3. Following stably expressing Ba/F3 cell lines were generated: Ba/F3-EGFR-WT, Ba/F3-EGFR-insSVD, Ba/F3-EGFR-insSVD T790M, (Ba/F3-vector-control).
For cell survival assays, Ba/F3 cells were grown to a density of 1-2 million cells per mL, spun down and resuspended in media without IL-3, and replated at a concentration of 200,000-500,000 cells per mL. The cells ectopically expressing WT EGFR, EGFR-insSVD, or EGFR-insSVD T790M were plated with 10 ng/mL Millipore Culture grade EGF. The cells ectopically expressing pBABEpuro empty vector were plated with 10 ng/mL IL-3.
2 days later, cells were plated in 50 μL in a 384 well plate at a concentration of 4000 cells per well for cells assayed in the absence of IL-3 and 2000 cells per well for cells assayed in the presence of IL-3. 100 nL of compound was added to each well using a 100 nL pin head, and plates were incubated at 37° C. for 48 h.
Cell viability was measured by adding 20 μL of Cell Titer-Glo Luminescent Cell Viability Reagent diluted 1:3 in PBS. Plates were sealed with Perkin Elmer Top-Seal, inverted several times to mix, and immediately centrifuged at 1000 rpm for 2 min. Plates were incubated in low light conditions for 8-10 min and luminescence was measured.

Sequence of mutEGFR (D770_N771insSVD) (P00533 with tags, fused parts or gaps INS767SVD limits assumed): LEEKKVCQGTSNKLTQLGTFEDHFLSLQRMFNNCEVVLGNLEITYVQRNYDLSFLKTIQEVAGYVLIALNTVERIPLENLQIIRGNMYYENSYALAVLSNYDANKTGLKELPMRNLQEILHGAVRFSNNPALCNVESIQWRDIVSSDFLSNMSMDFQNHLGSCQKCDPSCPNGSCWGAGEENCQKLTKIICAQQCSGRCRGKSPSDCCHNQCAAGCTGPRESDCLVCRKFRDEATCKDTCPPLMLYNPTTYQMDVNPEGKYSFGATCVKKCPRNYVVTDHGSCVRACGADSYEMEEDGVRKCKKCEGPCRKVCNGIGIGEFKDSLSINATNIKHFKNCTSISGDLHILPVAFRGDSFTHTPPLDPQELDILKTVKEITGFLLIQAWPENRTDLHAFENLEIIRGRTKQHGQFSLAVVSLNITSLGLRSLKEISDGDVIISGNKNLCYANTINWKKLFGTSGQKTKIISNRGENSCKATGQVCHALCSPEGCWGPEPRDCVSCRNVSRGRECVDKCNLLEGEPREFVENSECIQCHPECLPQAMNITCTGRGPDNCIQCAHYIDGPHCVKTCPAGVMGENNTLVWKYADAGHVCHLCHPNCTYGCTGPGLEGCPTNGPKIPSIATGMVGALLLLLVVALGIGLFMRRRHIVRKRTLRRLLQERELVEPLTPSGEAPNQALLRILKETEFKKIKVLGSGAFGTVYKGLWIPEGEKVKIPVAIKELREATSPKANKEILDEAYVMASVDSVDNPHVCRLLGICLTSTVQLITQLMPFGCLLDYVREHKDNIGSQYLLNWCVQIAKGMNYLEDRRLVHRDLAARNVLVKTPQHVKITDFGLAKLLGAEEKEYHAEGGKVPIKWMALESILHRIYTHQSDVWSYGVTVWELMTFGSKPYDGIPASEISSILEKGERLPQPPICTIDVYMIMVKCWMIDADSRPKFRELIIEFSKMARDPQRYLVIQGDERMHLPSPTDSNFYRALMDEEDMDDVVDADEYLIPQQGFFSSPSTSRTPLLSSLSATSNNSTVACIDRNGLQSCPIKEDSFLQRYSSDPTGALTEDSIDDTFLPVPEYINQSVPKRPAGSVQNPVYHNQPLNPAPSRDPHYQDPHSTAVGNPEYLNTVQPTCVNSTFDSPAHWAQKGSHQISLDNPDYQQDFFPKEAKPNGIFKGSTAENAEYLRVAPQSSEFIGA

| SMILES | IC50 [1] [nM] | IC50 [2] [nM] | IC50 [3] [nM] | IC50 [4] [nM] |
| --- | --- | --- | --- | --- |
| CC#CC(=O)N(C)CCOc1cnccc1-c1[nH]c2cccnc2c1-c1ccccc1 [Example 28, N-methyl-N-(2-{[4-(3-phenyl-1H-pyrrolo[3,2-b]pyridin-2-yl)pyridin-3-yl]oxy}ethyl)but-2-ynamide] | 6500 | > 20000 | 9980 | 9980 |
| C=CC(=O)N(C)CCOc1cnccc1-c1[nH]c2cccnc2c1-c1cccc(F)c1 [Example 14, N-[2-({4-[3-(3-fluorophenyl)-1H-pyrrolo[3,2-b]pyridin-2-yl]pyridin-3-yl}oxy)ethyl]-N-methylprop-2-enamide] | 16.4 | 46.3 | 833 | 9980 |
| C=CC(=O)N(C)CCOc1cnccc1-c1[nH]c2cccnc2c1-c1ccc(Cl)c(CC)c1 [Example 20, N-[2-({4-[3-(4-chloro-3-ethylphenyl)-1H-pyrrolo[3,2-b]pyridin-2-yl]pyridin-3-yl}oxy)ethyl]-N-methylprop-2-enamide] | 365 | 779 | 4650 | 8990 |
| C=CC(=O)N1CCC[C@H]1COc1cnccc1-c1[nH]c2cccnc2c1-c1cccc(C(F)(F)F)c1 [Example 39, 1-[(2S)-2-{[(4-{3-[3-(trifluoromethyl)phenyl]-1H-pyrrolo[3,2-b]pyridin-2-yl}pyridin-3-yl)oxy]methyl}pyrrolidin-1-yl]prop-2-en-1-one] | 1.19 | 5.22 | 91.4 | 5400 |
| C=CC(=O)N1CCC[C@@H]1COc1cnccc1-c1[nH]c2cccnc2c1-c1ccccc1 [Example 35, 1-[(2R)-2-({[4-(3-phenyl-1H-pyrrolo[3,2-b]pyridin-2-yl)pyridin-3-yl]oxy}methyl)pyrrolidin-1-yl]prop-2-en-1-one] | 53.6 | 349 | 1400 | 9980 |
| C=CC(=O)N(C)CCOc1cnccc1-c1[nH]c2cccnc2c1-c1ccc(Cl)c(C(=O)OC)c1 [Example 13, Methyl 2-chloro-5-[2-(3-{2-[methyl(prop-2-enoyl)amino]ethoxy}pyridin-4-yl)-1H-pyrrolo[3,2-b]pyridin-3-yl]benzoate] | 720 | 1390 | 6190 | 9980 |
| C=CC(=O)N1CCC[C@H]1COc1cnccc1-c1[nH]c2cccnc2c1-c1ccccc1 [Example 34, 1-[(2S)-2-({[4-(3-phenyl-1H-pyrrolo[3,2-b]pyridin-2-yl)pyridin-3-yl]oxy}methyl)pyrrolidin-1-yl]prop-2-en-1-one] | 0.367 | 2.06 | 16.9 | 750 |
| C=CS(=O)(=O)N(C)CCOc1cnccc1-c1[nH]c2cccnc2c1-c1cccc(Cl)c1 [Example 29, N-[2-({4-[3-(3-chlorophenyl)-1H-pyrrolo[3,2-b]pyridin-2-yl]pyridin-3-yl}oxy)ethyl]-N-methylethenesulfonamide] | 0.349 | 0.801 | 52.4 | 3130 |
| C=CC(=O)N(C)CCOc1cnccc1-c1[nH]c2cccnc2c1-c1ccc(Cl)c(Cl)c1 [Example 23, N-[2-({4-[3-(3,4-dichlorophenyl)-1H-pyrrolo[3,2-b]pyridin-2-yl]pyridin-3-yl}oxy)ethyl]-N-methylprop-2-enamide] | 36.8 | 49.3 | 2150 | 8860 |
| C=CC(=O)N(C)CCOc1cnccc1-c1[nH]c2cccnc2c1-c1ccc(Cl)c(C)c1 [Example 10, N-[2-({4-[3-(4-chloro-3-methylphenyl)-1H-pyrrolo[3,2-b]pyridin-2-yl]pyridin-3-yl}oxy)ethyl]-N-methylprop-2-enamide] | 73.1 | 90.6 | 2930 | 9980 |
| C=CC(=O)N1CCC[C@H]1COc1cnccc1-c1[nH]c2cccnc2c1-c1cccc(Cl)c1 [Example 41, 1-{(2S)-2-[({4-[3-(3-chlorophenyl)-1H-pyrrolo[3,2-b]pyridin-2-yl]pyridin-3-yl}oxy)methyl]pyrrolidin-1-yl}prop-2-en-1-one] | 0.319 | 0.988 | 25.9 | 782 |
| C=CC(=O)NCCOc1cnccc1-c1[nH]c2cccnc2c1-c1ccc(F)cc1 [Example 1, N-[2-({4-[3-(4-fluorophenyl)-1H-pyrrolo[3,2-b]pyridin-2-yl]pyridin-3-yl}oxy)ethyl]prop-2-enamide] | 414 | 606 | 4470 | 9980 |
| C=CC(=O)N(C)CCOc1cnccc1-c1[nH]c2cccnc2c1-c1ccc(F)c(C)c1 [Example 12, N-[2-({4-[3-(4-fluoro-3-methylphenyl)-1H-pyrrolo[3,2-b]pyridin-2-yl]pyridin-3-yl}oxy)ethyl]-N-methylprop-2-enamide] | 8.68 | 14.2 | 538 | 9100 |
| C=CC(=O)N(C)CCOc1cnccc1-c1[nH]c2cccnc2c1-c1cccc(F)c1OC [Example 19, N-[2-({4-[3-(3-fluoro-2-methoxyphenyl)-1H-pyrrolo[3,2-b]pyridin-2-yl]pyridin-3-yl}oxy)ethyl]-N-methylprop-2-enamide] | 178 | 797 | 6100 | 9980 |
| C=CC(=O)N(C)CCOc1cnccc1-c1[nH]c2cccnc2c1-c1cccc(Cl)c1OC [Example 21, N-[2-({4-[3-(3-chloro-2-methoxyphenyl)-1H-pyrrolo[3,2-b]pyridin-2-yl]pyridin-3-yl}oxy)ethyl]-N-methylprop-2-enamide] | 290 | 2260 | 4160 | 9980 |
| C=CC(=O)N(C)CCOc1cnccc1-c1[nH]c2cccnc2c1-c1ccccc1 [Example 4, N-methyl-N-(2-{[4-(3-phenyl-1H-pyrrolo[3,2-b]pyridin-2-yl)pyridin-3-yl]oxy}ethyl)prop-2-enamide] | 7.58 | 17.1 | 346 | 9980 |
| C=CC(=O)N(C)CCOc1cnccc1-c1[nH]c2cccnc2c1-c1cc(Cl)cc(Cl)c1 [Example 31, N-[2-({4-[3-(3,5-dichlorophenyl)-1H-pyrrolo[3,2-b]pyridin-2-yl]pyridin-3-yl}oxy)ethyl]-N-methylprop-2-enamide] | 931 | 391 | 5530 | 9980 |
| C=CS(=O)(=O)N1CCC[C@H]1COc1cnccc1-c1[nH]c2cccnc2c1-c1cccc(C(F)(F)F)c1 [Example 38, 2-(3-{[(2S)-1-(ethenesulfonyl)pyrrolidin-2-yl]methoxy}pyridin-4-yl)-3-[3-(trifluoromethyl)phenyl]-1H-pyrrolo[3,2-b]pyridine] | 0.404 | 1.05 | 20.1 | 147 |
| CN(C)C/C=C/C(=O)N(C)CCOc1cnccc1-c1[nH]c2cccnc2c1-c1ccccc1 [Example 26, (2E)-4-(dimethylamino)-N-methyl-N-(2-{[4-(3-phenyl-1H-pyrrolo[3,2-b]pyridin-2-yl)pyridin-3-yl]oxy}ethyl)but-2-enamide] | 65.9 | 333 | 1530 | 9980 |
| C=CC(=O)NCCCOc1cnccc1-c1[nH]c2cccnc2c1-c1ccccc1 [Example 5, N-(3-{[4-(3-phenyl-1H-pyrrolo[3,2-b]pyridin-2-yl)pyridin-3-yl]oxy}propyl)prop-2-enamide] | 11300 | > 20000 | 9980 | 9980 |
| C=CC(=O)N1CCC[C@H]1COc1cnccc1-c1[nH]c2cccnc2c1-c1cc(Cl)ccc1F [Example 42, 1-{(2S)-2-[({4-[3-(5-chloro-2-fluorophenyl)-1H-pyrrolo[3,2-b]pyridin-2-yl]pyridin-3-yl}oxy)methyl]pyrrolidin-1-yl}prop-2-en-1-one] | 1.11 | 2.84 | 44.7 | 3640 |
